Like-named read-outs stand apart in the source and are kept apart here.
Tests used:
CYP1A2 [1] = test system: CYP1A2; set-up: method as in Vavrová et al., 2022; Liu et al., 2023; settings: CYP1A2 selective inhibitor; ref Vavrová et al., 2022; Liu et al., 2023; cited from earlier work
CYP2B6 = CYP2B6 activity in RLM, mixed probe method (bupropion); settings: for IC50 at 30 min: rat
[2] = test system: lenvatinib metabolism (M1 formation) in HLM; test: Inhibition of lenvatinib metabolism (M1 formation) by flavonoids in human liver microsomes; format: in vitro ADME; settings: human; for IC50 at 30 min: 0.3 mg/mL HLM, lenvatinib 16.9 μM, mean ± S.D., read-out: IC50 to inhibit the metabolism of lenvatinib in HLM
CYP1A2 [3] = molecular target: T1, CYP1A2 (Rattus norvegicus, UniProt P04799); test: CYP1A2 activity in RLM, mixed probe method (melatonin); settings: for inhibition at 30 min, 100 µM: rat
T1 sequence (P04799 1-513): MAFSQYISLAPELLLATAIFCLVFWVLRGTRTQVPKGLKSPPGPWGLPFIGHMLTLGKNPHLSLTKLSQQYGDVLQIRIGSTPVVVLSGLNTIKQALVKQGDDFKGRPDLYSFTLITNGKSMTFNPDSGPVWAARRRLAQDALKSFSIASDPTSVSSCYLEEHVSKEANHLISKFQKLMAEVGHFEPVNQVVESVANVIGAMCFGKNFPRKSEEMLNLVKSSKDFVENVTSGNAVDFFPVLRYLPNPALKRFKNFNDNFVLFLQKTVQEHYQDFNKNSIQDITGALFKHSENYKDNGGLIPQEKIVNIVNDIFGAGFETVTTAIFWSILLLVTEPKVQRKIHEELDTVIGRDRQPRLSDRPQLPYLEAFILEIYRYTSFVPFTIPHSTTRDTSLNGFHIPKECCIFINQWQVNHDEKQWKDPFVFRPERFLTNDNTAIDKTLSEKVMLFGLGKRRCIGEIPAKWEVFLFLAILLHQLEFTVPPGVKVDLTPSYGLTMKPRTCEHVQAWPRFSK
Procedure: (§2) To determine the enzymatic kinetic parameter (the Michaelis constant, Km) of lenvatinib in RLM and HLM, we established a 200 μL enzyme reaction system, which included 2–100 μM lenvatinib, 0.3 mg/mL RLM or HLM, 0.1 M Tris-HCl, and 1 mM NADPH. […] The mixed probe substrates were added to an incubation mixture containing 0.3 mg/mL RLM, 0.1 M PBS, and 1 mM NADPH. First, the mixture without NADPH was pre-incubated at 37°C for 5 min, and then 10 μL NADPH was added to start the reaction. After incubation for 30 min, the samples were immediately freezed to −80°C to terminate the reaction. About 20 min later, 300 μL acetonitrile and 10 μL regorafenib (200 ng/mL) as IS were added to precipitate the protein. When the samples were fully vortexed for 2 min and completely mixed, the mixture was centrifuged for 10 min at 13,000 rpm. In the end, each supernatant was detected and analyzed by UPLC-MS/MS.
(§3) To explore the ability of three flavonoids to inhibit lenvatinib metabolism in vitro, we measured the half-maximal inhibitory concentration (IC50) of luteolin, myricetin, and fisetin, respectively. The 200 μL incubation system consisted of Tris-HCl (0.1 M), RLM or HLM (0.3 mg/mL), NADPH (1 mM), lenvatinib (23.5 μM in RLM or 16.9 μM in HLM) and three flavonoids (0, 0.01, 0.1, 1, 10, 25, 50 and 100 μM). To evaluate the effects of three flavonoids on CYP1A2, CYP2B6 and CYP3A4 activity in RLM, the specific CYP isoform probe mixture was incubated with a single inhibitor and the specific CYP isoform probe was used at a concentration equal to or slightly below its corresponding Km value ([Dinger et al., 2014]). […] Finally, the samples were processed as mentioned above.

CYP3A4 [4] = test system: CYP3A4
Procedure: as §2, §3

CYP3A4 [5] = test: in vitro; settings: rat; for IC50 at 30 min: microsomes
Procedure: as §2, §3

[6] = set-up: method as in Xia et al., 2023; settings: co-administered azole; ref Xia et al., 2023; cited from earlier work
[7] = Michaelis-Menten kinetics of lenvatinib in HLM; format: in vitro ADME, human; settings: human, human liver microsomes; 2–100 μM lenvatinib, 0.3 mg/mL HLM
Procedure: (§4) To determine the enzymatic kinetic parameter (the Michaelis constant, Km) of lenvatinib in RLM and HLM, we established a 200 μL enzyme reaction system, which included 2–100 μM lenvatinib, 0.3 mg/mL RLM or HLM, 0.1 M Tris-HCl, and 1 mM NADPH. […] First, the mixture without NADPH was pre-incubated at 37°C for 5 min, and then 10 μL NADPH was added to start the reaction. After incubation for 30 min, the samples were immediately freezed to −80°C to terminate the reaction. About 20 min later, 300 μL acetonitrile and 10 μL regorafenib (200 ng/mL) as IS were added to precipitate the protein. When the samples were fully vortexed for 2 min and completely mixed, the mixture was centrifuged for 10 min at 13,000 rpm. In the end, each supernatant was detected and analyzed by UPLC-MS/MS.
(§5) The experimental data were expressed as mean ± standard deviation (mean ± S.D.). Through GraphPad Prism 9.5 software, the Michaelis-Menten curves of lenvatinb in RLM and HLM were drawn based on the Michaelis-Menten analysis curve fitting program in nonlinear regression analysis, and the log(inhibitor) vs normalized response mode was applied to acquire the corresponding IC50 curve diagram. […]

HLM = test: Michaelis-Menten kinetics of lenvatinib in HLM; format: in vitro ADME, human; settings: HLM vs RLM
Procedure: as §4, §5

[8] = Metabolic stability of lenvatinib in RLM with or without flavonoids; format: in vitro ADME; settings: rat, rat liver microsomes, 1.0 μM lenvatinib, 0.3 mg/mL RLM, with or without flavonoid, n = 3
Procedure: Using the UPLC-MS/MS technique, metabolic stability tests were carried out to monitor any discernible drop in lenvatinib concentration in the RLM matrix ([Shang et al., 2021]). 1.0 μM lenvatinib was incubated with 0.3 mg/mL RLM and 1 mM NADPH in 0.1 M Tris-HCl buffer until a final volume of 0.2 mL was reached. NADPH was introduced following a 5 min pre-incubation period, and the reaction was stopped at various intervals of 0, 5, 10, 45, 60, and 90 min. Similarly, three flavonoids were added to the above incubation system to study the effects of the three flavonoids on the metabolic stability of lenvatinib. The post-treatment method was same as the above enzyme reaction. The metabolic stability curve for lenvatinib was constructed from the obtained data.
The relative content of lenvatinib in the RLM matrix was calculated after stopping the metabolic reaction at different time periods. The relative content was equal to the percentage of the remaining lenvatinib relative to zero time (representing 100%). […] The in vitro half-life (t1/2) was obtained using the equation: t1/2 = 0.693/k; V (mL/mg) = volume of incubation ([Kaci et al., 2023])/protein in the incubation ([Rumgay et al., 2022]); intrinsic clearance (CLint) (mL/min/mg protein) = V × 0.693/t1/2. […] The metabolic stability results of three flavonoids co-incubated with lenvatinib, including t1/2 and clearance were shown in Table 3.

[9] = Pharmacokinetics of lenvatinib in SD rats with or without luteolin or myricetin; settings: Sprague-Dawley, rat, in vivo, po, 1.2 mg/kg
Procedure: Fifteen SD rats were randomly divided into three groups (n = 5): Group A, lenvatinib (1.2 mg/kg, p. o.) ([Cui et al., 2021]); Group B, lenvatinib (1.2 mg/kg, p. o.) + luteolin (30 mg/kg, p. o.) ([Chen et al., 2010]); Group C, lenvatinib (1.2 mg/kg, p. o.) + myricetin (50 mg/kg, p. o.) ([Lan et al., 2017]). Three drugs were suspended in 0.5% carboxymethylcellulose sodium salt (CMC-Na) solution, respectively, prepared when used. Before the formal experiment, SD rats fasted for 12 h to avoid the effect of food intake on drug absorption, but were free to drink water. At the beginning of the experiment, group A was given equal volumes of 0.5% CMC-Na solution, while group B and C were received luteolin and myricetin, respectively. After 30 min, all three groups were gavaged with a single dose of 1.2 mg/kg lenvatinib. At 1, 1.5, 2, 3, 4, 6, 8, 12, and 24 h after lenvatinib administration, blood samples were collected from the tail vein into a 1.5 mL EP tube treated with heparin, respectively. The 50 μL plasma supernatant was precisely extracted and put into a new 1.5 mL EP tube after centrifugation at 8,000 rpm for 10 min. […] Finally, the liquid supernatant was taken to UPLC-MS/MS to detect the concentration of the analytes.

[10] = test system: lenvatinib metabolism in human liver microsomes (HLM); test: Inhibition of lenvatinib metabolism (M1 formation) by flavonoids in human liver microsomes; format: in vitro ADME; settings: for Inhibitory type on lenvatinib metabolism in HLM: Lineweaver-Burk plot
CYP1A2 [11] = test system: CYP1A2; set-up: method as in Cao et al., 2017; Shi et al., 2024; settings: ref Cao et al., 2017; Shi et al., 2024; read-out: IC50 on CYP1A2 in vitro; cited from earlier work
[12] = test system: lenvatinib metabolism in rat liver microsomes (RLM); test: Inhibition of lenvatinib metabolism (M1 formation) by flavonoids in rat liver microsomes; settings: Lineweaver-Burk plot
From the text: (§1) The experimental data were expressed as mean ± standard deviation (mean ± S.D.). Through GraphPad Prism 9.5 software, the Michaelis-Menten curves of lenvatinb in RLM and HLM were drawn based on the Michaelis-Menten analysis curve fitting program in nonlinear regression analysis, and the log(inhibitor) vs normalized response mode was applied to acquire the corresponding IC50 curve diagram. The Lineweaver-Burk plot was got by the Lineweaver-Burk double reciprocal mode, and its subsidiary plot was drawn on the slope (Km/Vmax vs. inhibitor concentration) and y-intercept (1/Vmax vs. inhibitor concentration) of the drawn line. Besides, the mean plasma concentration-time curve of lenvatinib was plotted based on the pharmacokinetic data. Drug and Statistics (DAS) software (version 3.0 software, Mathematical Pharmacology Professional Committee of China, Shanghai, China) with non-compartment model analyzes was used to obtain the corresponding pharmacokinetic parameters. SPSS (version 24.0; SPSS Inc., Chicago, IL, United States of America) with one-way ANOVA was used to compare the difference between the combination and the single group, respectively. p < 0.05, it was considered statistically significant.

[13] = test system: tofacitinib metabolism in HLM; set-up: method as in Ye et al., 2024; settings: ref Ye et al., 2024, cited from earlier work
[14] = test system: lenvatinib metabolism (M1 formation) in RLM; test: Inhibition of lenvatinib metabolism (M1 formation) by flavonoids in rat liver microsomes; settings: rat
From the text: as §1

[15] = set-up: method as in Hong et al., 2014; settings: rats; ref Hong et al., 2014; cited from earlier work
[16] = test system: tofacitinib metabolism in RLM; set-up: method as in Ye et al., 2024; settings: ref Ye et al., 2024, cited from earlier work
not read = substrate: COc1ccc2[nH]cc(CCNC(C)=O)c2c1; test: not read; settings: other: melatonin, mixed method, RLM; 37.0 °C
Procedure: as §2, §3

[17] = rat liver microsomes, probe bupropion (8.0 μM)
[18] = human liver microsomes, probe lenvatinib 16.9 μM

Cc1nc2c([nH]1)c(=O)n(C)c(=O)n2Cc1ccco1 [Furafylline]
Inhibitory effect on the formation of O-desmethyl lenvatinib (CYP1A2 [1]): 37%

O=c1c(O)c(-c2ccc(O)c(O)c2)oc2cc(O)ccc12 [fisetin]
IC50 at 30 min (CYP2B6; [17]): 29.4 ± 1.36 µM
IC50 at 30 min [2, 18]: 21.2 ± 0.93 µM
IC50 (CYP1A2 [3]): 5.89 ± 0.13 µM
inhibition at 30 min, 100 µM (CYP1A2 [3]; microsomes): 93.6%
Degree of inhibition on CYP3A4 (CYP3A4 [4]; RLM): weak inhibition
IC50 at 30 min (CYP3A4 [5]): 74.2 ± 2.16 µM

C[C@@H](c1nc(-c2ccc(C#N)cc2)cs1)[C@](O)(Cn1cncn1)c1cc(F)ccc1F [isavuconazole]
Improvement of plasma exposure to lenvatinib [6]: 50.20%

CC(=O)N1CCN(c2ccc(OCC3COC(Cn4ccnc4)(c4ccc(Cl)cc4Cl)O3)cc2)CC1 (stereo not drawn) [ketoconazole]
Improvement of plasma exposure to lenvatinib [6]: 3.01 times

COc1cc2nccc(Oc3ccc(NC(=O)NC4CC4)c(Cl)c3)c2cc1C(N)=O [lenvatinib, Lenvatinib]
Km at 30 min [7]: 16.9 ± 2.42 µM
Km in HLM lower than in RLM (HLM): 28.1%
microsomal CLint at 1 μM [8]: 2.3 ± 0.2 µL/min/mg
half-life at 1 μM ([8]; read-out: in vitro t1/2 of lenvatinib): 17 ± 1.55 h
AUC(0-inf) [9]: 1410 ng·h/mL
AUC(0-t) [9]: 1260 ng·h/mL
CL/F [9]: 14.3 mL/min/kg
Cmax [9]: 147 ± 20.4 ng/mL
Tmax [9]: 5.6 ± 0.89 h
t1/2z of lenvatinib [9]: 4.14 ± 1.57 h

O=c1cc(-c2ccc(O)c(O)c2)oc2cc(O)cc(O)c12 [luteolin]
Degree of inhibition on CYP2B6 (CYP2B6; RLM): moderate inhibition
IC50 at 30 min (CYP2B6; [17]): 18.9 ± 1.33 µM
Inhibitory type on lenvatinib metabolism in HLM [10]: mixed
Inhibitory type on lenvatinib metabolism in HLM ([10]; listed as Luteolin): mixed type of non-competitive and competitive inhibition
α for inhibition of lenvatinib metabolism in HLM ([10]; αKi/Ki): 1.34
IC50 at 30 min [2, 18]: 6.89 ± 0.43 µM
Ki at 30 min ([2]; human liver microsomes, probe lenvatinib 4.23, 8.45, 16.90, 33.80 μM, Lineweaver-Burk secondary plot, n = 3): 14.3 ± 4.85 µM
IC50 (CYP1A2 [3]): 0.81 ± 0.07 µM
Degree of inhibition on CYP1A2 (CYP1A2 [3]; RLM, 100 μM): strong inhibition
inhibition at 30 min, 100 µM (CYP1A2 [3]; rat liver microsomes, probe melatonin (30.0 μM)): 96.9%
Degree of inhibition on CYP3A4 (CYP3A4 [4]; microsomes): weak inhibition
IC50 (CYP1A2 [11]): < 10 µM
Inhibitory type on lenvatinib metabolism in RLM [12]: un-competitive
Inhibitory type on lenvatinib metabolism in RLM ([12]; listed as Luteolin): un-competitive inhibition
IC50 at 30 min (CYP3A4 [5]): 49.4 ± 2.45 µM

Cc1ncc2n1-c1ccc(Cl)cc1C(c1ccccc1F)=NC2 [midazolam, reference compound]
Km at 30 min (CYP3A4 [5]): 1.9 ± 0.13 µM

O=c1c(O)c(-c2cc(O)c(O)c(O)c2)oc2cc(O)cc(O)c12 [myricetin]
IC50 at 30 min (CYP2B6; microsomes, IC50 for CYP2B6 in RLM, probe 8.0 μM bupropion, mixed probes, 0.3 mg/mL RLM): > 20 µM
IC50 (CYP2B6; read-out: IC50 for CYP2B6 in RLM, probe 8.0 μM bupropion, mixed probes, 0.3 mg/mL RLM): 25.6 ± 1.73 µM
IC50 at 30 min [2]: 12.3 ± 1.21 µM
IC50 (CYP1A2 [3]): 5.61 ± 0.25 µM
inhibition at 30 min, 100 µM (CYP1A2 [3]; microsomes): 98.1%
Inhibition type on tofacitinib in HLM [13]: non-competitively
IC50 ([13]; read-out: IC50 for inhibition of tofacitinib in HLM): 2.35 µM
IC50 at 30 min [14]: 11.2 ± 0.81 µM
IC50 at 30 min (CYP3A4 [5]): 5.11 ± 0.11 µM
Absolute bioavailability [15]: less than 10%
Inhibition type on tofacitinib in RLM [16]: non-competitively
IC50 ([16]; read-out: IC50 for inhibition of tofacitinib in RLM): 9.27 µM

B1: CYP1A2 (Rattus norvegicus) (protein)
chain: T1 sequence (P04799 1-513)
Km (not read): 32.39 ± 0.58 µM
